{"source": "patent US7196105B2", "about": "“Treatment of human multiple myeloma by curcumin” (Research Development Foundation, priority 2002, dated 2007)", "assay_type_in_all_cases": "cell-based, human", "key": {"[1]": {"system": "NF-κB", "test": "Electrophoretic mobility shift assay (EMSA) for nuclear NF-κB in multiple myeloma cell lines", "details": "for time of complete downregulation of NF-κB: 50 μM curcumin", "experimental": "FIG. 1A: Dose response of NF-κB to curcumin treatment of U266 cells. […] FIG. 1B: Effect of exposure duration on curcumin-induced NF-κB suppression in U266 cells. […] FIG. 1C: Effect of exposure duration on curcumin-induced NF-κB suppression in MM.1 cells. Cells were treated as described in FIG. 1B. FIG. 1D: Effect of exposure duration on curcumin-induced NF-κB suppression in MM.1R cells. Cells were treated as described in FIG. 1B. FIG. 1E: Effect of exposure duration on curcumin-induced NF-κB suppression in RPMI 8226. Cells were treated as described in FIG. 1B. FIG. 1F: […] Nuclear extracts were prepared from U266 cells (2×10^6/ml), incubated for 30 min with different antibodies or unlabeled NF-κB oligonucleotide probe, and then assayed for NF-κB by EMSA. […] U266 cells (2×10^6 cells/ml) were treated with indicated concentrations of NEMO-control or NBD-peptide (100 μM) for the indicated times. Nuclear extracts were then checked for the presence of NF-κB DNA-binding activity by EMSA. […] Untreated or NBD-peptide-treated (100 μM; 12 h) U266 cells were cytospun, and p65 immunocytochemistry was performed as described. Red stain indicates the localization of p65 and blue stain indicates nucleus (magnification 200×). […] U266 cells (2×10^6 cells/ml) were treated with indicated concentrations of NEMO-control or NBD-peptide (100 μM) for the indicated time periods, and cell viability was monitored by the trypan blue dye exclusion method. Percent cell killing was determined as: (number of trypan blue stained cells/total cells)×100. Nuclear extracts were prepared according to Bharti et al. (2003). Briefly, 2×10^6 cells were washed with cold PBS and suspended in 0.4 ml of hypotonic lysis buffer containing protease inhibitors for 30 min. The cells were then lysed with 12.5 μl of 10% Nonidet P-40. […] The nuclear pellet was resuspended in 25-μl ice-cold nuclear extraction buffer. After 30 min of intermittent mixing, the extract was centrifuged, and supernatants containing nuclear extracts were collected. Protein content was measured by the Bradford method. […] NF-kB activation was analyzed by electrophoretic mobility gel shift assay (EMSA) as described previously (Chaturvedi et al., 1994). […] Radioactive bands from the dried gels were visualized and quantitated by Phosphorlmager (Molecular Dynamics, Sunnyvale, Calif.) using ImageQuant software."}, "[2]": {"system": "IKKα and IKKβ", "test": "Western blot for total IKKα and IKKβ proteins in U266 cytoplasmic extracts", "details": "U266 cells, curcumin 50 μM", "experimental": "FIG. 3A: Level of phosphorylated IκBα determined by Western blotting. FIG. 3B: Immunoprecipitated IκB kinase and kinase assay of IκB kinase activity (upper panel) or Western blotting for the analysis of total IKKα and IKKβ proteins in cytoplasmic extracts (lower panel). FIG. 3C: IκB kinase was immunoprecipitated and kinase assay was performed in the absence or presence of the indicated concentrations of curcumin (upper panel). Lower panel indicates the amount of GST-IκBα protein stained with Coomassie Blue in each well in the same dried gel. To determine the total amount of IKK complex in each sample, […] of cytoplasmic protein was resolved on a 7.5% acrylamide gel and then electrotransferred to a nitrocellulose membrane. The membrane was blocked with 5% nonfat milk protein for 1 h and then incubated with either anti-IKKα or anti-IKKβ antibodies for 1 h. The membrane was then washed and treated with HRP-conjugated secondary anti-mouse IgG antibody and finally detected by chemiluminescence (Amersham Pharmacia Biotech, Arlington Heights, Ill.)."}, "[3]": {"system": "cyclin D1", "test": "Western blot for NF-κB-regulated gene product cyclin D1 in U266 cells", "details": "curcumin 50 μM", "experimental": "(§1) Sixty micrograms of cytoplasmic extracts were resolved on 10% SDS-PAGE gel, electrotransferred on a nitrocellulose membrane, and probed for the following: IκBα (FIG. 4A); Bcl-2 (FIG. 4B); Bcl-xL (FIG. 4C) and cyclin D1 (FIG. 4D). The same blots were stripped and reprobed with anti-β-actin antibody to show equal protein loading (lower panel in each figure). FIG. 4E: […] U266, MM.1 or RPMI 8226 cells (1×10^7) were treated with curcumin ([…]) in 5 ml of medium for the indicated times. Supernatants were harvested and concentrated approximately 20×, and IL-6 was quantitated by an IL-6 ELISA kit. Values shown were normalized to 1 ml of un-concentrated supernatants. Thirty to fifty micrograms of cytoplasmic protein extracts prepared as described (Chaturvedi et al., 2000) were resolved on 10% SDS-PAGE gel. After electrophoresis, the proteins were electrotransferred to a nitrocellulose membrane, blocked with 5% nonfat milk, and probed with antibodies against either IkBa, phospho-IkBa, Bcl-2, Bcl-xL, or cyclin D1 (1:3000) for 1 h. Thereafter, the blot was washed, exposed to HRP-conjugated secondary antibodies for 1 h, and finally detected by chemiluminescence (ECL, Amersham Pharmacia Biotech., Arlington Heights, Ill.)."}, "[4]": {"system": "Bcl-2", "test": "Western blot for NF-κB-regulated gene product Bcl-2 in U266 cells", "details": "curcumin 50 μM", "experimental": "as §1"}, "[5]": {"system": "IκBα", "test": "Western blot for NF-κB-regulated gene product IκBα in U266 cells", "details": "curcumin 50 μM, time course", "experimental": "as §1"}, "[6]": {"system": "NF-κB", "test": "Immunocytochemistry for NF-κB in bone marrow CD138+ cells from multiple myeloma patients", "details": "patients #5, #9 and #10, 50 μM curcumin, 2 h", "experimental": "The cells were fixed on slides by cytospin centrifugation and immuno-stained for NF-κB or STAT3. Red stain indicates specific staining for NF-κB or STAT3, whereas blue stain indicates the relative position of the nuclei in the corresponding view.\nRed stain indicates the specific staining for NF-κB or STAT3 as indicated, whereas blue stain indicates the relative position of the nuclei in the corresponding view.\nUntreated or treated multiple myeloma cells were plated on a poly-L-lysine-coated glass slide by centrifugation using a Cytospin 4 (Thermoshendon, Pittsburg, Pa.), air-dried for 1 h at room temperature, and fixed with cold acetone. After a brief washing in PBS, slides were blocked with 5% normal goat serum for 1 h and then incubated either with rabbit polyclonal anti-human NF-κB p65 antibody (SC-109; dilution, 1:100) or with anti-human STAT3 antibody (SC-482; dilution, 1:100). After overnight incubation, the slides were washed and then incubated with goat anti-rabbit IgG-Alexa 594 (A-11037; dilution, 1:100) for 1 h and counter-stained for nuclei with Hoechst (50 ng/ml) for 5 min. Stained slides were mounted with mounting medium (Sigma Colo.) and analyzed under an epifluorescence microscope (Labophot-2, Nikon, Tokyo, Japan). […]"}}, "data": [{"smiles": "COc1cc(/C=C/C(=O)CC(=O)/C=C/c2ccc(O)c(OC)c2)ccc1O", "note": "[curcumin, diferuloylmethane]", "values": [{"measurement": "time of complete downregulation of NF-κB", "setting": "[1]; MM.1 cells", "value": 4, "unit": "h"}, {"measurement": "time of complete downregulation of NF-κB", "setting": "[1]; MM.1R cells", "value": 4, "unit": "h"}, {"measurement": "time of complete downregulation of NF-κB", "setting": "[1]; U266 cells", "value": 4, "unit": "h"}, {"measurement": "concentration sufficient to fully suppress constitutive NF-κB activation", "setting": "[1]; U266 cells, 4 h, EMSA", "value": 50, "unit": "µM"}, {"measurement": "protein levels of IκB kinase subunits IKKα and IKKβ", "setting": "[2]", "value": "no significant change"}, {"measurement": "time to complete depletion of cyclin D1", "setting": "[3]", "value": "≤ 4", "unit": "h"}, {"measurement": "time to lowest level (complete decline) of Bcl-2", "setting": "[4]", "value": "≤ 8", "unit": "h"}, {"measurement": "IκBα protein level", "setting": "[5]", "value": "only a partial decline"}, {"measurement": "constitutive NF-κB activation (nuclear localization)", "setting": "[6]", "value": "downregulated NF-κB"}]}]}
